Here are results for eight molecules from the supplement of paper PMC11061612.

For experiment [1], the system named is SK-N-SH (Neuroblastoma). Description: combination Emax (second highest fraction inhibited in the dose matrix, 72 h); higher = more inhibition; extreme values may be limits of the assay. The method in brief:
(§1)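 Bliss excess equals the observed combination effect minus the expected value EA + EB − EA·EB, where EA and EB are the effects of each agent alone. Combination Emax is the second-highest inhibition within the matrix. Inhibition was scaled from CellTiter-Glo 2.0 luminescence, with 0 set by vehicle wells and 1 by blank wells, after 72 hours of two-drug dosing of cells plated in 1536-well plates.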

The subject of experiment [2] is MS-1 (Small Cell Lung Carcinoma). The description is as above. The method in brief: as §1
Experiment [3] concerns C-33-A (Cervical Carcinoma). The experiment is described as above. The method, boiled down:
as §1

In experiment [4] the test system is IA-LM (Non-Small Cell Lung Carcinoma). The description is as above. The method, boiled down:
as §1

Experiment [5] has as its system MDA-MB-415 (Breast Carcinoma). The description is as above. The method, boiled down: as §1
The test system of experiment [6] is RCC-JW (Kidney Carcinoma). The experiment is described as above. The method in brief:
as §1

Experiment [7] deals with SK-CO-1 (Colorectal Carcinoma). The description is as above. The method, boiled down:
as §1

For experiment [8], the system named is HPAF-II (Pancreatic Carcinoma). The description is as above. The method, boiled down: as §1
Experiment [9] has as its system CPC-N (Small Cell Lung Carcinoma). The description is as above. The method in brief:
as §1

The subject of experiment [10] is COR-L88 (Small Cell Lung Carcinoma). The experiment is described as above. The method, boiled down: as §1
The test system of experiment [11] is GAK (Melanoma). The experiment is described as above. The method, boiled down: as §1
Experiment [12] has as its system SKG-IIIa (Cervical Carcinoma). The experiment is described as above. The method in brief:
as §1

Experiment [13] relates to KP-4 (Pancreatic Carcinoma). In words: Bliss excess, mean over the matrix (fraction); higher = more synergy. The method, boiled down: as §1

For the molecule `N#Cc1cnc(Nc2cc(NC[C@H]3CNCCO3)c(C(F)(F)F)cn2)cn1` [SRA737] + Nc1ccn([C@@H]2O[C@H](CO)[C@@H](O)C2(F)F)c(=O)n1 [Gemcitabine] (first compound max 10 µM, 7x7, partner max 0.3 µM), the “combination Emax” value in [1] came out at 0.852; in experiment [2], 0.945; in experiment [3], 0.951; in experiment [4] it was 0.373; in experiment [5] it was 0.638; in experiment [6], 0.868. The “combination Emax” value is 0.899 in [7]; 0.61 in experiment [8]; 0.916 in [9]; 0.617 in experiment [10]; 0.506 in experiment [11]; 0.575 in [12].
Take `Cc1c2c(nn1C)CSCc1cc(n(C)n1)CSc1cc(c3ccccc3c1)OCCCc1c(C(=O)O)n(C)c3c-2c(Cl)ccc13` [AZD5991] + Nc1ccn([C@@H]2O[C@H](CO)[C@@H](O)C2(F)F)c(=O)n1 [Gemcitabine] (first compound max 1 µM, 7x7, partner max 0.3 µM): the “combination Emax” value in [1] was 0.757; in experiment [2], 0.722; in [3] it was 0.895; in experiment [4] it was 0.261; in experiment [5] it was 0.526; in experiment [6], 0.828. The “combination Emax” value in experiment [7] was 0.864; in experiment [8], 0.268; in experiment [9], 0.754; in experiment [10], 0.485; in experiment [11], 0.473; in [12], 0.332.
With `C=CCn1c(=O)c2cnc(Nc3ccc(N4CCN(C)CC4)cc3)nc2n1-c1cccc(C(C)(C)O)n1` [AZD1775] + CCc1c2c(nc3ccc(O)cc13)-c1cc3c(c(=O)n1C2)COC(=O)[C@]3(O)CC [SN-38] (first compound max 1 µM, partner max 0.3 µM), the Bliss excess in [13] stood at 0.0054. For the same molecule, the “combination Emax” value in [1] was found to be 0.957; in experiment [2], 0.86; in experiment [3], 0.997; in [4], 0.67; in [5] it was 0.469; in experiment [6], 0.542. The “combination Emax” value is 0.898 in experiment [7]; 0.597 in experiment [8]; 0.923 in experiment [9]; 0.671 in experiment [10]; 0.678 in [11]; 0.725 in experiment [12].
Consider `CN(CCO)CC[C@H](CSc1ccccc1)Nc1ccc(S(=O)(=O)NC(=O)c2ccc(N3CCC([C@@H](O)c4ccccc4-c4ccc(Cl)cc4)CC3)cc2)cc1S(=O)(=O)C(F)(F)F` [AZD4320] + CC(=O)O[C@H]1C(=O)[C@@]2(C)[C@H]([C@H](OC(=O)c3ccccc3)[C@]3(O)C[C@H](OC(=O)[C@H](O)[C@@H](NC(=O)c4ccccc4)c4ccccc4)C(C)=C1C3(C)C)[C@]1(OC(C)=O)CO[C@@H]1C[C@@H]2O [Paclitaxel] (first compound max 1 µM, 7x7, partner max 3 µM), for which, in [13], the Bliss excess is -0.0097. Moreover, the “combination Emax” value in [1] was found to be 0.989; in experiment [2], 0.971; in experiment [3] it was 0.989; in experiment [4], 0.833; in experiment [5], 0.923; in experiment [6], 0.952. Besides, the “combination Emax” value in [7] turned out to be 0.972; in experiment [8] it was 0.955; in experiment [9], 1; in experiment [10], 0.997; in experiment [11], 0.709; in experiment [12], 0.905.
Regarding `C[C@@H]1COCCN1c1cc(C2([S@](C)(=N)=O)CC2)nc(-c2ccnc3[nH]ccc23)n1` [AZD6738] + Nc1ccn([C@@H]2O[C@H](CO)[C@@H](O)C2(F)F)c(=O)n1 [Gemcitabine] (first compound max 10 µM, 7x7, partner max 0.3 µM), the “combination Emax” value in experiment [1] amounted to 0.932; in experiment [2], 0.961; in [3], 0.969; in experiment [4], 0.462; in experiment [5], 0.642; in experiment [6] it was 0.877. The “combination Emax” value in [7] is 0.897; in [8] it was 0.577; in experiment [9] it was 0.949; in [10], 0.756; in experiment [11], 0.503; in experiment [12], 0.623.
With `C=CCn1c(=O)c2cnc(Nc3ccc(N4CCN(C)CC4)cc3)nc2n1-c1cccc(C(C)(C)O)n1` [AZD1775] + Nc1ccn([C@@H]2O[C@H](CO)[C@@H](O)C2(F)F)c(=O)n1 [Gemcitabine] (first compound max 1 µM, partner max 0.3 µM), the “combination Emax” value in [1] is 0.879; in [2], 0.838; in [3], 0.996; in experiment [4], 0.287; in experiment [5], 0.58; in experiment [6] it was 0.819. For the same molecule, the “combination Emax” value in experiment [7] is 0.903; in experiment [8], 0.551; in experiment [9], 0.897; in [10], 0.65; in [11] it was 0.612; in [12], 0.643.
With `N#Cc1cnc(Nc2cc(NC[C@H]3CNCCO3)c(C(F)(F)F)cn2)cn1` [SRA737] + CCc1c2c(nc3ccc(O)cc13)-c1cc3c(c(=O)n1C2)COC(=O)[C@]3(O)CC [SN-38] (first compound max 10 µM, 7x7, partner max 0.3 µM), the Bliss excess in experiment [13] was -0.031. Further, the “combination Emax” value in experiment [1] worked out at 0.892; in experiment [2], 0.799; in experiment [3], 0.943; in experiment [4] it was 0.675; in [5], 0.431; in [6], 0.574. The “combination Emax” value in experiment [7] was determined as 0.893; in experiment [8], 0.547; in [9] it was 0.872; in experiment [10], 0.645; in experiment [11], 0.585; in experiment [12], 0.592.
`CN(CCO)CC[C@H](CSc1ccccc1)Nc1ccc(S(=O)(=O)NC(=O)c2ccc(N3CCC([C@@H](O)c4ccccc4-c4ccc(Cl)cc4)CC3)cc2)cc1S(=O)(=O)C(F)(F)F` [AZD4320] + Nc1ccn([C@@H]2O[C@H](CO)[C@@H](O)C2(F)F)c(=O)n1 [Gemcitabine] (first compound max 1 µM, 7x7, partner max 0.3 µM): the “combination Emax” value in experiment [1] was 0.968; in [2], 0.78; in [3], 0.796; in experiment [4] it was 0.594; in experiment [5], 0.637; in experiment [6], 0.965. The “combination Emax” value in experiment [7] amounted to 0.945; in experiment [8], 0.759; in [9], 0.962; in experiment [10] it was 0.947; in experiment [11] it was 0.583; in experiment [12], 0.475.
